Entries after “also recorded” stand apart in the source; their conditions may differ.
Tests used:
calcineurin = conditions: cited from earlier work
[1] = system: purified chick sensory neurons (PC12 or SH-SY5Y cells); conditions: literature; cited from earlier work
DRG explants = assay: DRG explant neurite outgrowth with anti-NGF neutralizing antibodies or MEK1 inhibitor; assay type: cell-based, C57B1/6 mice
Experimental: (A) DRGs were prepared and cultured as above, except that either the MEK1 inhibitor, PD 098059, or NGF-neutralizing antibodies were included in cultures treated with either NGF or GM-284. Maximal response was determined to be the extent of neurite outgrowth when DRGs were cultured in NGF alone (spotted bars) or in 1 μM GM-284 (striped bars). As indicated, DRGs were treated with either NGF or GM-284, in the presence of either 0.25 mg/ml anti-NGF neutralizing antibodies or PD 098059. […] DRGs were treated with 100 ng/ml NGF or 1 μM GM-284, for 30 min or 4 h, as indicated, and the detergent lysates were prepared and immunoblotted with anti-phospho-Erk monoclonal antibody. The p42 and p44 bands are indicated by arrowheads.
Explanted DRG ganglia were dissected from P1 to P3 C57B1/6 mice, as previously described (Weinstein et al., Targeted expression of an oncogenic adaptor protein v-Crk potentiates axonal growth in dorsal root ganglia and motor neurons in vivo. Brain Res. Dev. Brain Res., 116:29-39, 1999). Briefly, DRGs were dissected and placed in ice-cold PBS containing 2% glucose, then transferred onto polyornithine/laminin-coated tissue culture plates (Biocoat, Becton Dickinson Laboratories) in DMEM-plating medium overnight. The plating medium consisted of Dulbecco's minimal essential plating medium (DMEM) supplemented with 10% fetal calf serum (FCS; Hyclone), 0.6% glucose, 2 mM glutamine, 100 U/ml penicillin, 100 μg/ml streptomycin, and 20 mM HEPES. […] For experiments employing anti-NGF neutralizing antibodies, cultures were incubated with […] anti-NGF antiserum, and replaced every two days. Cultures were kept at 37° C., in 5% CO2, for up to 1 week, at which time the extent of well-defined neurite outgrowth was assessed.
Signaling by the neurotrophins, while mediated by different cell-surface receptors, converges on the extensively studied and well-characterized MAP kinase pathway. […] Therefore, the inventors explored the possibility that GM-284 might signal through NGF directly, or through the MAP kinase cascade. […]

Compound	binding to / inhibition of calcineurin (calcineurin)	neurite outgrowth without other signaling molecules / with sub-threshold NGF [1]	effect of anti-NGF / MEK1 inhibition on GM-284-mediated neurite outgrowth (DRG explants; DRGs cultured in 1 μM GM-284 plus inhibitor)	decrease of NGF-dependent neurite outgrowth (DRG explants; DRGs cultured in NGF plus inhibitor) [%]
CCC(C)(C)C(=O)C(=O)N1CCC[C@H]1C(=O)OCCCc1cccnc1 [GPI-1046]	neither bind to, nor inhibit, calcineurin	potentiate neurite outgrowth only when co-administered with sub-threshold concentrations of NGF; also recorded: unable to mediate neurite outgrowth in the absence of other signaling molecules		
COc1cccc(-c2cc(=O)c3ccccc3o2)c1N [PD 098059]			no effect	~40

— patent publication US20040266811A1, “Methods for inducing regeneration, remyelination, and hypermyelination of nervous tissue” (priority 2002, published 2004)
